The numbers were not newly measured in US12130296B2, “Method for the direct detection and/or quantification of at least one compound with a molecular weight of at least 200” (SANIFIT THERAPEUTICS S.A., priority 2011, dated 2024), which cites them from elsewhere.

The conditions of the series: 12 dissociable protons; Carbohydr Res 46, 159-171; 1976.

As to `O=P(O)(O)O[C@H]1[C@H](OP(=O)(O)O)[C@@H](OP(=O)(O)O)[C@H](OP(=O)(O)O)[C@@H](OP(=O)(O)O)[C@H]1OP(=O)(O)O` [inositol hexaphosphate], the pKa values entry is “from negative values to more than 10”.
